Assay results as given in patent US20260055103A1, “2,3,4,9-TETRAHYDRO-1H-PYRIDO[3,4-B]INDOLE DERIVATIVES AS ESTROGEN RECEPTOR MODULATORS FOR THE TREATMENT OF CANCER” (Olema Pharmaceuticals, Inc., priority 2022, published 2026).

Target: T1, estrogen receptor (Homo sapiens, UniProt P03372)
T1 construct: endogenous in cells; host or cells: ECC-1 cells
T1 sequence (P03372 1-595): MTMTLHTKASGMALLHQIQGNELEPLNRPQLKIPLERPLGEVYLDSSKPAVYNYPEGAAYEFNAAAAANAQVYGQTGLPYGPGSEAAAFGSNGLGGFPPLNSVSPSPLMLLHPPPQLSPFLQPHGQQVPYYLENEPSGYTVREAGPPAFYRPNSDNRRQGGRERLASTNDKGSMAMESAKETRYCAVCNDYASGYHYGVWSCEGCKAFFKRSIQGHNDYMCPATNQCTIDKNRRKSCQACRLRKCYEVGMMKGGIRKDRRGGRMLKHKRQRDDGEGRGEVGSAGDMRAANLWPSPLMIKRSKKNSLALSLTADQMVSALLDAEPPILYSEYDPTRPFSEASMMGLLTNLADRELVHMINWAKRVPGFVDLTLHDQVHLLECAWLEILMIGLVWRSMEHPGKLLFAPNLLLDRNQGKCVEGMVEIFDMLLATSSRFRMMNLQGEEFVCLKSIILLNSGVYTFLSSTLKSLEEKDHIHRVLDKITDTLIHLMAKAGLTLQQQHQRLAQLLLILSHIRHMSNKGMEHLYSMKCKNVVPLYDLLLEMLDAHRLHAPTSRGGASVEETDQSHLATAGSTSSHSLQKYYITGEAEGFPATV
Test: Alkaline phosphatase (AP) assay in ECC-1 cells, agonist mode (no E2) and antagonist mode (500 pM E2)
Assay type: cell-based
Conditions: 3 days, AP activity normalized to 500 pM E2 alone, agonist mode without E2, antagonist mode with 500 pM E2
Method: ECC-1 cells were trypsinized and resuspended in hormone-depleted media and plated at a density of 15 k cells per well into a 96-well plate for at least 4 hours. Cells were treated with test compounds in the absence of E2 (for agonist mode) or in the presence of 500 pM E2 (for antagonist mode) for 3 days and plates were subsequently frozen at −80° C. Thawed plates were incubated with a chromogenic substrate of AP, p-nitrophenyl phosphate (Thermo Fisher Scientific), for 40 minutes at 42° C., and absorbances were read at 405 nm. AP activity was normalized to the activity of 500 pM E2 alone.
The compound numbers correspond to the compound numbers of Table 1 and 2. Compounds having an activity designated as “+” provided estrogen receptor agonism having (i) at least 80% increase in the E2-normalized signal in the AP assay (agonist mode) and (ii) no more than 80% reduction in the E2-normalized signal in the AP assay (antagonist mode). Compounds having an activity designated as “++” provided estrogen receptor antagonism having (i) between 10% and 80% increase in the E2-normalized signal in the AP assay (agonist mode) and (ii) between 10% and 80% reduction in the E2-normalized signal in the AP assay (antagonist mode).

Structure (SMILES): C[C@@H]1Cc2c([nH]c3ccccc23)[C@@H](c2cnc(N[C@@H]3CCCN(CCCF)C3)s2)N1CC(F)(F)CO [Example I-67, 2,2-difluoro-3-((1S,3R)-1-(2-(((R)-1-(3-fluoropropyl)piperidin-3-yl)amino)thiazol-5-yl)-3-methyl-1,3,4,9-tetrahydro-2H-pyrido[3,4-b]indol-2-yl)propan-1-ol]
- Activity (estrogen receptor modulation, agonism and antagonism): + (estrogen receptor agonism having (i) at least 80% increase in the E2-normalized signal in the AP assay (agonist mode) and (ii) no more than 80% reduction in the E2-normalized signal in the AP assay (antagonist mode))

Structure (SMILES): CCCN1CC[C@@H](Cc2ncc([C@@H]3c4[nH]c5ccccc5c4C[C@@H](C)N3CC(F)F)s2)C1 [Example I-45, 5-[(1S,3R)-2-(2,2-difluoroethyl)-3-methyl-1,3,4,9-tetrahydropyrido[3,4-b]indol-1-yl]-2-[[(3S)-1-propylpyrrolidin-3-yl]methyl]thiazole]
- Activity (estrogen receptor modulation, agonism and antagonism): + (estrogen receptor agonism having (i) at least 80% increase in the E2-normalized signal in the AP assay (agonist mode) and (ii) no more than 80% reduction in the E2-normalized signal in the AP assay (antagonist mode))

Structure (SMILES): CCN1CCC(c2ccc([C@@H]3c4[nH]c5ccccc5c4C[C@@H](C)N3CC(C)(C)F)s2)CC1 [Example I-69, (1S,3R)-1-(5-(1-ethylpiperidin-4-yl)thiophen-2-yl)-2-(2-fluoro-2-methylpropyl)-3-methyl-2,3,4,9-tetrahydro-1H-pyrido[3,4-b]indole]
- Activity (estrogen receptor modulation, agonism and antagonism): ++ (estrogen receptor antagonism having (i) between 10% and 80% increase in the E2-normalized signal in the AP assay (agonist mode) and (ii) between 10% and 80% reduction in the E2-normalized signal in the AP assay (antagonist mode))

Structure (SMILES): C[C@@H]1Cc2c([nH]c3ccccc23)[C@@H](c2ccc(CC3CN(CCCF)C3)s2)N1CC(F)F [Example I-17, 3-({5-[(1S,3R)-2-(2,2-difluoroethyl)-3-methyl-1H,2H,3H,4H,9H-pyrido[3,4-b]indol-1-yl]thiophen-2-yl}methyl)-1-(3-fluoropropyl)azetidine]
- Activity (estrogen receptor modulation, agonism and antagonism): +++ (estrogen receptor antagonism (i) with pIC50 greater than 7.5 and at least a 10% reduction in the E2-normalized signal in the AP assay (antagonist mode); and no more than 10% increase in E2-normalized signal in the AP assay (agonist mode))

Structure (SMILES): C[C@@H]1Cc2c([nH]c3ccccc23)[C@@H](c2ccc(CC3CN(CCCF)C3)s2)N1CC(F)(F)F [Example I-20, 1-(3-fluoropropyl)-3-({5-[(1S,3R)-3-methyl-2-(2,2,2-trifluoroethyl)-1H,2H,3H,4H,9H-pyrido[3,4-b]indol-1-yl]thiophen-2-yl}methyl)azetidine]
- Activity (estrogen receptor modulation, agonism and antagonism): ++ (estrogen receptor antagonism having (i) between 10% and 80% increase in the E2-normalized signal in the AP assay (agonist mode) and (ii) between 10% and 80% reduction in the E2-normalized signal in the AP assay (antagonist mode))

Structure (SMILES): C[C@@H]1Cc2c([nH]c3ccccc23)[C@@H](c2ccc(CC3CN(CCCF)C3)s2)N1CC(C)(F)F [Example I-22, 3-({5-[(1S,3R)-2-(2,2-difluoropropyl)-3-methyl-1H,2H,3H,4H,9H-pyrido[3,4-b]indol-1-yl]thiophen-2-yl}methyl)-1-(3-fluoropropyl)azetidine]
- Activity (estrogen receptor modulation, agonism and antagonism): ++ (estrogen receptor antagonism having (i) between 10% and 80% increase in the E2-normalized signal in the AP assay (agonist mode) and (ii) between 10% and 80% reduction in the E2-normalized signal in the AP assay (antagonist mode))

Structure (SMILES): C[C@@H]1Cc2c([nH]c3ccccc23)[C@@H](c2ccc(CC3CN(CCC(F)F)C3)s2)N1CC(C)(C)F [Example I-18, 1-(3,3-difluoropropyl)-3-({5-[(1S,3R)-2-(2-fluoro-2-methylpropyl)-3-methyl-1H,2H,3H,4H,9H-pyrido[3,4-b]indol-1-yl]thiophen-2-yl}methyl)azetidine]
- Activity (estrogen receptor modulation, agonism and antagonism): ++ (estrogen receptor antagonism having (i) between 10% and 80% increase in the E2-normalized signal in the AP assay (agonist mode) and (ii) between 10% and 80% reduction in the E2-normalized signal in the AP assay (antagonist mode))

Structure (SMILES): CCCN1CC(Cc2ncc([C@@H]3c4[nH]c5ccccc5c4C[C@@H](C)N3CC(C)(C)F)s2)C1 [Example I-7, 5-((1S,3R)-2-(2-fluoro-2-methylpropyl)-3-methyl-2,3,4,9-tetrahydro-1H-pyrido[3,4-b]indol-1-yl)-2-((1-propylazetidin-3-yl)methyl)thiazole]
- Activity (estrogen receptor modulation, agonism and antagonism): ++ (estrogen receptor antagonism having (i) between 10% and 80% increase in the E2-normalized signal in the AP assay (agonist mode) and (ii) between 10% and 80% reduction in the E2-normalized signal in the AP assay (antagonist mode))

Structure (SMILES): C[C@@H]1Cc2c([nH]c3ccccc23)[C@@H](c2cc(F)c(CC3CN(CCCF)C3)s2)N1CC(C)(C)F [Example I-13, (1S,3R)-2-(2-fluoro-2-methylpropyl)-1-(4-fluoro-5-((1-(3-fluoropropyl)azetidin-3-yl)methyl)thiophen-2-yl)-3-methyl-2,3,4,9-tetrahydro-1H-pyrido[3,4-b]indole]
- Activity (estrogen receptor modulation, agonism and antagonism): ++ (estrogen receptor antagonism having (i) between 10% and 80% increase in the E2-normalized signal in the AP assay (agonist mode) and (ii) between 10% and 80% reduction in the E2-normalized signal in the AP assay (antagonist mode))

Structure (SMILES): C#CCN1CC(Cc2ccc([C@@H]3c4[nH]c5ccccc5c4C[C@@H](C)N3CC(F)(F)CO)s2)C1 [Example I-60, 2,2-difluoro-3-[(1S,3R)-3-methyl-1-[5-[(1-prop-2-ynylazetidin-3-yl)methyl]-2-thienyl]-1,3,4,9-tetrahydropyrido[3,4-b]indol-2-yl]propan-1-ol]
- Activity (estrogen receptor modulation, agonism and antagonism): ++ (estrogen receptor antagonism having (i) between 10% and 80% increase in the E2-normalized signal in the AP assay (agonist mode) and (ii) between 10% and 80% reduction in the E2-normalized signal in the AP assay (antagonist mode))

Structure (SMILES): CCCN1CC(Cc2cc(F)c([C@@H]3c4[nH]c5ccccc5c4C[C@@H](C)N3CC(C)(C)F)s2)C1 [Example I-11, 3-({4-fluoro-5-[(1S,3R)-2-(2-fluoro-2-methylpropyl)-3-methyl-1H,2H,3H,4H,9H-pyrido[3,4-b]indol-1-yl]thiophen-2-yl}methyl)-1-propylazetidine]
- Activity (estrogen receptor modulation, agonism and antagonism): ++ (estrogen receptor antagonism having (i) between 10% and 80% increase in the E2-normalized signal in the AP assay (agonist mode) and (ii) between 10% and 80% reduction in the E2-normalized signal in the AP assay (antagonist mode))

Structure (SMILES): C[C@@H]1Cc2c([nH]c3ccccc23)[C@@H](c2ccc(C3CCN(CCF)CC3)s2)N1CC(C)(C)F [Example I-68, (1S,3R)-1-[5-[1-(2-fluoroethyl)-4-piperidyl]-2-thienyl]-2-(2-fluoro-2-methyl-propyl)-3-methyl-1,3,4,9-tetrahydropyrido[3,4-b]indole]
- Activity (estrogen receptor modulation, agonism and antagonism): ++ (estrogen receptor antagonism having (i) between 10% and 80% increase in the E2-normalized signal in the AP assay (agonist mode) and (ii) between 10% and 80% reduction in the E2-normalized signal in the AP assay (antagonist mode))

Structure (SMILES): COCCCN1CC(Cc2ccc([C@@H]3c4[nH]c5ccccc5c4C[C@@H](C)N3CC(F)(F)CO)s2)C1 [Example I-53, 2,2-difluoro-3-[(1S,3R)-1-[5-[[1-(3-methoxypropyl)azetidin-3-yl]methyl]-2-thienyl]-3-methyl-1,3,4,9-tetrahydropyrido[3,4-b]indol-2-yl]propan-1-ol]
- Activity (estrogen receptor modulation, agonism and antagonism): ++ (estrogen receptor antagonism having (i) between 10% and 80% increase in the E2-normalized signal in the AP assay (agonist mode) and (ii) between 10% and 80% reduction in the E2-normalized signal in the AP assay (antagonist mode))

Structure (SMILES): CCCN1CC(Sc2ccc([C@@H]3c4[nH]c5ccccc5c4C[C@@H](C)N3CC(C)(C)F)s2)C1 [Example I-62, 3-({5-[(1S,3R)-2-(2-fluoro-2-methylpropyl)-3-methyl-1H,2H,3H,4H,9H-pyrido[3,4-b]indol-1-yl]thiophen-2-yl}sulfanyl)-1-propylazetidine]
- Activity (estrogen receptor modulation, agonism and antagonism): ++ (estrogen receptor antagonism having (i) between 10% and 80% increase in the E2-normalized signal in the AP assay (agonist mode) and (ii) between 10% and 80% reduction in the E2-normalized signal in the AP assay (antagonist mode))
